# Assay results taken from patent US20140235542A1, “MODULAR, BIOACTIVE PEPTIDES FOR BINDING NATIVE BONE AND IMPROVING BONE GRAFT OSTEOINDUCTIVITY” (WISCONSIN ALUMNI RESEARCH FOUNDATION, priority 2013, published 2014).
# Square brackets hold non-standard residues; d marks the D form. Ends that are not written are not given here. Gla = N[C@@H](CC(C(=O)O)C(=O)O)C(=O)O
# Key:
# [1] = Binding of 5(6)-FAM-conjugated modular peptides to HA-coated PLG films; settings: 4 hr, 37° C.
# Procedure: Poly (lactide-coglycolide) (PLG) films were prepared via a solvent casting process in which PLG (85:15) pellets were dissolved in chloroform (50 mg/ml), added to a PTFE dish, and dried for 2 days. The films were further dried at 50-55° C. for 4 hr to remove residual solvent and samples were cooled to room temperature. Square films (1 cm^2) were manually cut out of the resulting PLG film sheets. A “bone-like” HA-based material layer was grown on the PLG films using a direct deposition technique by biomimetic mineralization in modified simulated body fluid (mSBF).
# To measure the binding efficiency of modular peptides to the HA-coated PLG films and to gain preliminary insight into the properties that influence modular peptide immobilization, 1 cm^2 HA-coated PLG films was first exposed to PBS solutions containing 500 μg (1 mg/ml) of 5(6) FAM-conjugated eBMP-2, eBGu1, eBGu3, eBGa1, or eBGa3 modular peptide solution (See Table 1 for definitions of these abbreviations). The films were incubated in peptide solutions with constant agitation for 4 hr at 37° C., and the amount of free peptide remaining was determined by measuring the fluorescence emission of the solution (excitation: 494 nm; emission 519 nm) using a Synergy HT Multi-Detection Microplate Reader (BioTek, Winooski, Vt.), and comparing this emission to standard samples with known concentrations of 5(6)-FAM. To further characterize surface immobilization of the peptide with the highest binding efficiency—the eBGa3 peptide-1 cm^2 HA-coated films were incubated in various concentrations (50-750 nM) of 5(6)-FAM-conjugated eBGa3 peptide for 4 hr with constant agitation at 37° C. The amount of peptide bound to HA-coated film was again determined by fluorescence analysis, as described above.
# hMSCs = experiment: Alkaline phosphatase (ALP) activity in hMSCs; assay type: cell-based, human; settings: peptide bound to HA-coated film, vs untreated substrates
# Procedure: hMSCs (Cambrex, Walkersville, Md., passages 5-6) were cultured in mesenchymal stem cell growth medium (MSCGM: Cambrex) consisting of MSC Basal Medium supplemented with 10% fetal bovine serum, L-glutamine, 100 units/ml penicillin, and 0.1 mg/ml streptomycin and grown using culture methods described elsewhere. […] The effects of soluble peptides included in culture medium were evaluated by adding 50 μg of eBGu3 or eBGa3 peptides to hMSC cultures on TCP in 500 μl of medium with or without osteogenic culture supplements. […]
# The biological activity of modular peptides was initially assayed by their ability to enhance ALP activity in hMSCs. […] ALP activity was measured at 405 nm, and calculated as the ratio of p-nitrophenol released to total DNA concentration (nmol/min/ng DNA). To determine the amount of total DNA in each well, the cell nuclei were disrupted by addition of the aforementioned lysis buffer followed by centrifugation, and quantified using the CyQUANT Assay Kit (Molecular Probes, Eugene, Oreg.).
# [2] = Binding of rhodamine-labeled peptide to cortical bone; set-up: species or system sheep
# Procedure: The native bone used were harvested from sheep tibia and bovine sternum. Cortical (compact) bone slices were collected from sheep tibia with periosteum removed, and trabecular (cancellous, spongy) bone cores were drilled out from bovine sternum under sterile conditions.
# The peptide binding to native bones was tested in three different experiments. In the first experiment, the cortical bone slices were incubated in modular peptide solution (0.5 mL, PBS) with concentrations of 50, 100, 200 and 300 μg/mL. The incubation was continued in a static condition for a period of 0.5, 1, 2 and 3 hours. For another experiment, the trabecular bone cores were placed in the chamber of bone bioreactor where the peptide solution prepared in DMEM (100 μg/mL, 6.5 mL) was continuously circulated through the chamber for a time period of 2, 4, 6, 8 and 10 hours. In the last experiment, mBMP was bound in a spatially controlled manner by dip-coating, spotting or writing with mBMP solution on native bone tissues. Following each experiment, the bones were rinsed with PBS to remove unbound peptide and their fluorescence images were captured using a Typhoon fluorescence scanner (GE healthcare) or a Nikon Eclipse Ti inverted microscope. To quantify the fluorescence intensity, the images were converted into 8-bit using ImageJ to present the intensity level of each pixel in the range of 0 to 255. The mean pixel intensity of a selected region of interest was considered to be proportional to the amount of peptide bound.
# To examine mBMP binding to cortical bone without periosteum (ca. 4 mm×7 mm×1.5 mm) from the shaft of sheep tibia, the bone tissue was incubated in mBMP solution prepared in phosphate buffered saline (PBS). The binding of mBMP was concentration-dependent for each incubation time tested (FIGS. 12 and 13A). The quantity of mBMP binding was proportional to the solution concentration, which was clearly observed through all concentrations at 0.5 hour. However, this dependence was not apparent at higher concentrations at later time points. […] The insignificant dependence on the incubation time is likely attributed to the rapid binding of mBMP to native bone tissue.
substance,measurement,setting,value
KIPKASSVPTELSAISTLYLAAAAγEPRRγEVAγEL (KIPKASSVPTELSAISTLYLAAAA[Gla]PRR[Gla]VA[Gla]L-NH2; N-terminus assumed; SMILES CC[C@H](C)[C@H](NC(=O)[C@H](C)NC(=O)[C@H](CO)NC(=O)[C@H](CC(C)C)NC(=O)[C@H](CCC(=O)O)NC(=O)[C@@H](NC(=O)[C@@H]1CCCN1C(=O)[C@@H](NC(=O)[C@H](CO)NC(=O)[C@H](CO)NC(=O)[C@H](C)NC(=O)[C@H](CCCCN)NC(=O)[C@@H]1CCCN1C(=O)[C@@H](NC(=O)[C@@H](N)CCCCN)[C@@H](C)CC)C(C)C)[C@@H](C)O)C(=O)N[C@@H](CO)C(=O)N[C@H](C(=O)N[C@@H](CC(C)C)C(=O)N[C@@H](Cc1ccc(O)cc1)C(=O)N[C@@H](CC(C)C)C(=O)N[C@@H](C)C(=O)N[C@@H](C)C(=O)N[C@@H](C)C(=O)N[C@@H](C)C(=O)N[C@@H](CC(C(=O)O)C(=O)O)C(=O)N1CCC[C@H]1C(=O)N[C@@H](CCCNC(=N)N)C(=O)N[C@@H](CCCNC(=N)N)C(=O)N[C@@H](CC(C(=O)O)C(=O)O)C(=O)N[C@H](C(=O)N[C@@H](C)C(=O)N[C@@H](CC(C(=O)O)C(=O)O)C(=O)N[C@@H](CC(C)C)C(N)=O)C(C)C)[C@@H](C)O) [eBGa3],binding efficiency on the HA-coated PLG films,"[1]; 500 μg (1 mg/ml) 5(6)-FAM-conjugated peptide in PBS, constant agitation",55.9±2.2%
same,peptide amount at which bound amount reached saturation,[1]; HA-coated film,~300 µg
same,peptide concentration at which bound amount reached saturation,[1]; HA-coated film,approximately 150 μM
same,effect of immobilized peptide on ALP activity,hMSCs,significantly enhanced
same,dependence of binding to cortical bone on concentration and incubation time,"[2]; 50-300 μg/mL in PBS, 0.5-3 hours",concentration-dependent
same,binding to bone surface after dip-coating,[2]; bone piece dip-coated in peptide solution,significant amount of mBMP was found to bind
same,fluorescence intensity of treated bone compared with rhodamine-treated group,"[2]; rhodamine-labeled peptide, cortical bone",higher fluorescence intensity
